Patent publication US20250114313A1, “OLIGO-BENZAMIDE ANALOGS AND THEIR USE IN CANCER TREATMENT” (BOARD OF REGENTS, THE UNIVERSITY OF TEXAS SYSTEM, priority 2022, published 2025)
pIC50: −log10 of the molar value. “Also recorded” adds a separate entry of the source. Where two headings read alike, the source gives them in different places. Blank lines part the entries; values can stand above or below the compound they belong to.

Legend:
[1] = system: SUM-159 cells with LIPA KO; assay: UPR induction and protein synthesis in SUM-159 cells with LIPA KO (RNA-seq, RT-qPCR, western); format: cell-based, Human; conditions: known ER stress inducers
Experimental: Western blotting: Whole cell lysates from breast cancer cells were prepared with 2× sample buffer (60 mM Tris-HCl, pH 6.8, 2% sodium dodecyl sulfate, 10% glycerol), and before loading mixed with loading buffer (5% 2-mercaptoethanol, 0.1% bromophenol blue) and boiled for denaturation, as previously described.^33 Proteins were separated by SDS-PAGE and subjected to Western analysis using antibodies. To detect nascent translated proteins, puromycin (final concentration 10 μg/mL) was added into cell plates 30 minutes before harvesting cells. Then samples were subjected to the Western blotting. Nascent proteins were detected by anti-puromycin antibody.
Real-time quantitative PCR (RT-qPCR): Total RNA was prepared from breast cancer cells using the RNeasy Mini Kit (Qiagen) according to the manufacturer protocols. Subsequently, total RNAs were reverse transcribed into cDNA using iScript Reverse Transcription Supermix (Bio-rad) and by using SYBR Green on an Illumina Real-Time PCR system.
RNA-sequencing: mRNA-seq sequencing library construction was performed using TruSeq RNA Library Preparation Kit (Illumina) according to the manufacturer's instructions. FASTQ reads from Genomics Core at UTSW were mapped to Human GRCh38 genome using HiSAT2 (RRID:SCR_015530). Differential expression analysis is performed using DEseq2 (RRID:SCR_015687). Abundances of transcripts are calculated using ballgown (Frazee et al. 2014). The values of Fragments Per Kilobase of transcript per Million mapped reads (FPKM) were used for Gene Set Enrichment Analysis (GSEA). GSEA was performed by using the GSEA software (RRID:SCR_005724) and C5 ontology gene sets (14765 gene sets in total). mRNA-seq data from this study are available from NCBI GEO under accession #GSE168800.

[2] = system: TNBC; assay: ER stress, cell death and lysosomes in TNBC (discussion, no method); format: cell-based
[3] = biological target: T1, LAL lipase activity (Homo sapiens, UniProt P38571); assay: Lipase activity assay (4-MUP), SUM-159 cell lysate; format: biochemical
T1 construct: heat stability of LAL or vinculin protein in SUM-159 cells; endogenous in cells; host or cells: SUM-159
T1 sequence (P38571 77-399): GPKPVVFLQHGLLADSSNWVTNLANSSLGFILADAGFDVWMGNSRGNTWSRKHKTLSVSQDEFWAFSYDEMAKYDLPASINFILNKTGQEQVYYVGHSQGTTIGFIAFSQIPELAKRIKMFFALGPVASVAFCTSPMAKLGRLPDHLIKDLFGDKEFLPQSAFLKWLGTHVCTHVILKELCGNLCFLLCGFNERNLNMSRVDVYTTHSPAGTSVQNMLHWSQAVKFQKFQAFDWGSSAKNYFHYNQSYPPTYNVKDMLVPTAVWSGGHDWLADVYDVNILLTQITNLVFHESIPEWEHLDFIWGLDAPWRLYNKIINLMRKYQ
Experimental: Lipase activity assay: Lipase activity assays were performed as described previously (Dairaku, et al)^37. Briefly, a 0.345 mM substrate solution was prepared from 1.2 mL of 13.3 mM 4-MUP and 42 mL of 100 mM sodium acetate buffer pH 4.0, 1.0% (v/v) Triton X-100 and 3.0 mL of 0.5% (w/v) cardiolipin. For the enzyme reaction, 50 μL of the substrate in buffer solution, 40 μL of diluted cell lysate and 10 μL of DMSO or 30 μM Lalistat2 or 30 μM ERX-41 were combined in a black 96-well plate. The plates were sealed with an adhesive aluminum film and incubated in a 37° C. incubator for 1 h. The reactions were terminated using 200 μL of 150 mM EDTA at pH 11.5. The fluorescence of the plates were read immediately with synergy H1 fluorescence microplate reader (BioTek) using a 365-nm excitation filter and a 450-nm emission filter. The LIPA lipase activity was calculated by subtracting the enzymatic activity of the inhibited (with Lalistat2) reaction from that of the uninhibited (without Lalistat2) reaction.

[4] = biological target: T2, ER Alpha-LBD (GST) (Homo sapiens, UniProt P03372); assay: LanthaScreen TR-FRET ER alpha Coactivator Assay, antagonist mode; format: binding; conditions: 2 h incubation
T2 construct: 3.5 nM ER Alpha-LBD (GST); purchased life technologies A15885
T2 sequence (P03372 311-547 limits assumed): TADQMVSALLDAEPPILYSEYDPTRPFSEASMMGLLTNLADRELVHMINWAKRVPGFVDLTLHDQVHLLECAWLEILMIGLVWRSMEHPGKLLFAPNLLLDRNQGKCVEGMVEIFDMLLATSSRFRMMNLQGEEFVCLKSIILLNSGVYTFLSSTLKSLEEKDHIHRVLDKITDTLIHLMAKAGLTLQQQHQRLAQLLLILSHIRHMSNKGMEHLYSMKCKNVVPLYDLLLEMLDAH

[5] = earlier finding; cited from earlier work
[6] = system: ERα-positive breast cancer cells (MCF-7, ZR-75); assay: MTT cell viability, ERα-positive breast cancer cells; format: cell-based, Human; conditions: MCF-7 and ZR-75, read-out: anti-proliferative IC50
Experimental: (§1) Cell viability assays: Cells were seeded in 96-well plates (2×10^3 cells/well) one day before the treatment. Cells were treated with varying concentrations of ERX-41 or ERX-11 analogs for 3-6 days. Then effects of ERX-41 or ERX-11 analogs on cell viability were measured in triplicate or sextuplicate with multiple biological replicates using the WST-1 (Promega), MTT as previously described^33 or CellTiter-Glo 2.0 (Promega) assays.

[7] = system: TNBC cells (SUM-159, MDA-MB-231); assay: MTT cell viability, TNBC cells; format: cell-based, Human
Experimental: as §1

[8] = system: ERα-positive breast cancer cells (MCF-7, ZR-75); conditions: therapy-sensitive and therapy-resistant ERα-positive breast cancers; inventors' previous work; read-out: IC50, block of ERα signaling and ERα-driven proliferation; cited from earlier work
[9] = system: ovarian cancer cells and breast cancer cells; assay: ERX-315 in cancer cell lines; format: cell-based
[10] = system: BC xenografts expressing the Y537S ERα mutant (ZR75, MCF7); assay: ERX-315 in therapy resistant BC xenografts (Y537S ERα mutant ZR75, MCF7); format: in vivo, mouse
[11] = ERX-315 in syngeneic D2A1 tumor model, organ evaluation; format: in vivo, mice; conditions: syngeneic D2A1 tumors

Compound: tunicamycin [reference compound]
- inducibility of UPR genes in LIPA KO cells [1]: preserved

Compound: O=C(Oc1nsnc1N1CCCCC1)N1CCCCC1 [Lalistat 2]
- induction of ER stress or cell death in TNBC [2]: does not induce ER stress or cell death in TNBC
- lipase function (other lipases) in LIPA-KO cells ([3]; LIPA-KO cells): lack of inhibitory activity on lipase function
- lipase activity of LIPA ([3]; SUM-159 cells, 30 μM): attenuated lipase activity

Compound: C[C@]12CC[C@@H]3c4ccc(O)cc4C[C@@H](CCCCCCCCC[S+]([O-])CCCC(F)(F)C(F)(F)F)[C@H]3[C@@H]1CC[C@@H]2O (stereo partly drawn) [fulvestrant]
- interaction with ERα LBD [4]: interact with ERG LBD

Compound: C/C=C(/C)C(=O)O[C@H]1C(C)=C2[C@H]([C@@H]1OC(=O)CCCCCCC)[C@@](C)(OC(C)=O)C[C@H](OC(=O)CCC)[C@@]1(O)[C@H]2OC(=O)[C@@]1(C)O [thapsigargin, reference compound]
- inducibility of UPR genes in LIPA KO cells [1]: preserved

Now from value to compound, other results behind:

- interaction with ERα LBD [4]: interact with ERG LBD
- pIC50 [6]: 6.30 to 6.70
- pIC50 ([7]; MTT, SUM-159 and MDA-MB-231, read-out: IC50 against TNBC cells): < 5.00
Compound: CC(C)COc1cc(C(N)=O)ccc1NC(=O)c1ccc(NC(=O)c2ccc([N+](=O)[O-])c(OCCO)c2)c(OCC(C)C)c1 [ERX-11, reference compound]
- oral bioavailability [5]: orally bioavailable
- anti-tumor activity in TNBC cells ([7]; TNBC cells (lack expression of ERα)): did not show anti-tumor activity
- pIC50 [8]: 6.30 to 6.70

- pIC50 ([9]; read-out: IC50 against ovarian cancer cells and breast cancer cells): 7.30 to 8.00
- immunogenicity, immune infiltrates in spleen, lymph nodes, kidney, liver [11]: not immunogenic
Compound: CC(C)COc1cc(C(=O)Nc2ccc(C(=O)N[C@H]3CC[C@H](C(=O)Nc4cnc5ccccc5c4)CC3)cc2OCC(C)C)ccc1NC(=O)c1ccc(F)c(OCCO)c1 [ERX-315]
- effectiveness in cell culture models of cancer ([9]; FIG. 17): effective in each cell line tested
- Ki67 proliferation indices of tumors ([10]; histologic evaluation): dramatically decreased K167 proliferation indices
- activity against therapy resistant BC xenografts ([10]; oral, captisol formulation, listed as TK315): decreased the growth and tumor weight; also recorded: potent activity
- mouse liver or body weight ([10]; oral, listed as TK315): No change in body weight; also recorded: no effect on mouse liver or body weight
